Test system: production of kynurenine in KATO-III cells
Assay: Inhibitory activity on the production of kynurenine (IFN-γ-treated KATO-III cells, kynurenine in the culture medium quantified by absorbance at 480 nm)
Assay type: cell-based
Details: test compound at 10 μmol/L, human gastric cancer cell line KATO-III, 96 hours, read-out: inhibition rate (production of kynurenine)
Procedure: This assay was performed by a modification of the method described in J. Biol. Chem., vol. 263, pp. 2041-2048 (1988). For culture of the human gastric cancer cell line KATO-III, RPMI 1640 (GIBCO, 11875) supplemented with 10 volt FBS (GIBCO, 10091-148, lot. 665285) was used. One μL of a test substance in a DMSO solution was diluted with 199 μL of the culture medium and placed in wells of a 384-well plate (10 μL/well). Next, IFN-γ (Sigma, 1-3265) was added to the culture medium to a concentration of 31.25 ng/mL, and KATO-III cells were suspended at 50,000 cells/mL in the culture medium. Forty μL of the suspension was added to each well (2,000 cells/well) and incubated under a 5% CO2 atmosphere at 37° C. for 96 hours. The final concentration of DMSO was limited to 0.1 volt or less so that DMSO itself may not affect the kynurenine concentration measured by this assay. After the incubation, 10 μL of a 30 w/vt aqueous trichloroacetic acid solution was added to each well, and incubation was performed at 65° C. for 30 minutes. The plate was centrifuged at 2,500×g for 5 minutes and 15μL of the supernatant in each well was transferred into another 384-well plate. To the transferred supernatant, 15 μL of a 2 w/vt solution of p-dimethylaminobenzaldehyde in acetic acid was added, incubation was performed at 65° C. for 20 minutes and the absorbance was measured at 480 nm.
Sample: the absorbance value of the well to which a DMSO solution containing a test substance was added and in which the cells were treated with IFN-γ.
Blank: the absorbance value of the well to which DMSO not containing a test substance was added and in which the cells were treated with IFN-γ.
Control: the absorbance value of the well to which DMSO not containing a test substance was added and in which the cells were not treated with IFN-γ.
In this assay, expression of IDO in KATO-III cells is induced by IFN-γ treatment and kynurenine in the culture medium is quantified. The kynurenine concentration in a culture medium is known to increase in proportion to the enzymatic activity of intracellular IDO (for example, J. Biol. Chem., vol. 263, pp. 2041-2048 ([…])). […] The production of kynurenine is known to be inhibited by IDO inhibitors (for example, J. Clin. Invest., vol. 117, No. 5, pp. 1147-1154 […]), and thus it is speculated that Compounds (I) also have an inhibitory effect on IDO.

Row | Structure (SMILES) | inhibition at 10 µM [%]
1 | CCCS(=O)(=O)Nc1nc2ccccc2nc1OC(c1cc[n+]([O-])cc1)C(F)(F)F (centres unmarked) [Compound 43, 4-(2,2,2-trifluoro-1-(3-(propylsulfonamido)quinoxalin-2-yloxy)ethyl)pyridine 1-oxide] | ≥ 80
2 | COCCS(=O)(=O)Nc1nc2ccccc2nc1OC(c1ccc(-c2ccnn2C)nc1)C(F)(F)F (centres unmarked) [Compound 67, 2-methoxy-N-(3-(2,2,2-trifluoro-1-(6-(1-methyl-1H-pyrazol-5-yl)pyridin-3-yl)ethoxy)quinoxalin-2-yl)ethanesulfonamide] | ≥ 80
3 | CCCS(=O)(=O)Nc1nc2ccccc2nc1OC(c1ccc2c(c1)OCCO2)C(F)(F)F (centres unmarked) [Compound 48, N-(3-(1-(2,3-dihydrobenzo[b][1,4]dioxin-6-yl)-2,2,2-trifluoroethoxy)quinoxalin-2-yl)propane-1-sulfonamide] | ≥ 80
4 | CCCCC(Oc1nc2ccccc2nc1NS(=O)(=O)CCC)c1ccc[n+]([O-])c1 (centres unmarked) [Compound 12, 3-(1-(3-(propylsulfonamido)quinoxalin-2-yloxy)pentyl)pyridine 1-oxide] | ≥ 80
5 | CCCS(=O)(=O)Nc1nc2ccccc2nc1OC(c1cnc(C(C)=O)s1)C(F)(F)F (centres unmarked) [Compound 71, N-(3-(1-(2-acetylthiazol-5-yl)-2,2,2-trifluoroethoxy)quinoxalin-2-yl)propane-1-sulfonamide] | ≥ 80
6 | CCCS(=O)(=O)Nc1nc2ccccc2nc1OC(c1ccncc1)C(F)(F)F (centres unmarked) [Compound 42, N-(3-(2,2,2-trifluoro-1-(pyridin-4-yl)ethoxy)quinoxalin-2-yl)propane-1-sulfonamide] | ≥ 80
7 | O=S(=O)(CC1CC1)Nc1nc2ccccc2nc1OC(c1ccc2nccn2c1)C(F)(F)F (centres unmarked) [Compound 30, 1-cyclopropyl-N-(3-(2,2,2-trifluoro-1-(imidazo[1,2-a]pyridin-6-yl)ethoxy)quinoxalin-2-yl)methanesulfonamide] | ≥ 80
8 | CCCS(=O)(=O)Nc1nc2ccccc2nc1OC(c1ccnc(-n2ccnc2)c1)C(F)(F)F (centres unmarked) [Compound 54, N-(3-(1-(2-(1H-imidazol-1-yl)pyridin-4-yl)-2,2,2-trifluoroethoxy)quinoxalin-2-yl)propane-1-sulfonamide] | ≥ 80
9 | CCCS(=O)(=O)Nc1nc2ccccc2nc1OC(c1ccc(-c2cnco2)nc1)C(F)(F)F (centres unmarked) [Compound 65, N-(3-(2,2,2-trifluoro-1-(6-(oxazol-5-yl)pyridin-3-yl)ethoxy)quinoxalin-2-yl)propane-1-sulfonamide] | ≥ 80
10 | CCCS(=O)(=O)Nc1nc2ccccc2nc1OC(c1ccnc(N(C)C(C)=O)c1)C(F)(F)F (centres unmarked) [Compound 49, N-methyl-N-(4-(2,2,2-trifluoro-1-(3-(propylsulfonamido)quinoxalin-2-yloxy)ethyl)pyridin-2-yl)acetamide] | ≥ 80
11 | CCCS(=O)(=O)Nc1nc2ccccc2nc1OC(c1ccnc(N)c1)C(F)(F)F (centres unmarked) [Compound 45, N-(3-(1-(2-aminopyridin-4-yl)-2,2,2-trifluoroethoxy)quinoxalin-2-yl)propane-1-sulfonamide] | ≥ 80
12 | CCCS(=O)(=O)Nc1nc2ccccc2nc1OC(c1ccc[n+]([O-])c1)C(C)(C)F (centres unmarked) [Compound 8, 3-(2-fluoro-2-methyl-1-(3-(propylsulfonamido)quinoxalin-2-yloxy)propyl)pyridine 1-oxide] | ≥ 80
13 | CCCCS(=O)(=O)Nc1nc2ccccc2nc1OC(c1ccc([S+](C)[O-])nc1)C(F)(F)F (centres unmarked) [Compound 41, N-(3-(2,2,2-trifluoro-1-(6-(methylsulfinyl)pyridin-3-yl)ethoxy)quinoxalin-2-yl)butane-1-sulfonamide] | ≥ 80
14 | CCCCS(=O)(=O)Nc1nc2ccccc2nc1OC(c1ccc(-c2cnn(C)c2)nc1)C(F)(F)F (centres unmarked) [Compound 33, N-(3-(2,2,2-trifluoro-1-(6-(1-methyl-1H-pyrazol-4-yl)pyridin-3-yl)ethoxy)quinoxalin-2-yl)butane-1-sulfonamide] | ≥ 80
15 | CCCS(=O)(=O)Nc1nc2ccccc2nc1OC(c1ccc(CO)nc1)C(F)(F)F (centres unmarked) [Compound 31, N-(3-(2,2,2-trifluoro-1-(6-(hydroxymethyl)pyridin-3-yl)ethoxy)quinoxalin-2-yl)propane-1-sulfonamide] | ≥ 80
16 | CCCS(=O)(=O)Nc1nc2ccccc2nc1OC(c1ccccc1)c1cccnc1 (centres unmarked) [Compound 23, N-(3-(phenyl(pyridin-3-yl)methoxy)quinoxalin-2-yl)propane-1-sulfonamide] | ≥ 80
17 | C#Cc1ccc2nc(OC(c3cccnc3)C(F)(F)F)c(NS(=O)(=O)CCC)nc2c1 (centres unmarked) [Compound 79, N-(7-ethynyl-3-(2,2,2-trifluoro-1-(pyridin-3-yl)ethoxy)quinoxalin-2-yl)propane-1-sulfonamide] | ≥ 80
18 | COCCS(=O)(=O)Nc1nc2ccccc2nc1OC(c1ccc(-c2cnn(C)n2)nc1)C(F)(F)F (centres unmarked) [Compound 68A, 2-methoxy-N-(3-(2,2,2-trifluoro-1-(6-(2-methyl-2H-1,2,3-triazol-4-yl)pyridin-3-yl)ethoxy)quinoxalin-2-yl)ethanesulfonamide] | ≥ 80
19 | CCCS(=O)(=O)Nc1nc2ccccc2nc1OC(c1ccccc1)c1ccc[n+]([O-])c1 (centres unmarked) [Compound 24, 3-(phenyl(3-(propylsulfonamido)quinoxalin-2-yloxy)methyl)pyridine 1-oxide] | ≥ 80
20 | CCCS(=O)(=O)Nc1nc2ccccc2nc1OC(c1ccc[n+]([O-])c1)C1CC1 (centres unmarked) [Compound 6, 3-(cyclopropyl(3-(propylsulfonamido)quinoxalin-2-yloxy)methyl)pyridine 1-oxide] | ≥ 80
21 | O=S(=O)(CC1CC1)Nc1nc2ccccc2nc1OC(c1ccncc1)C(F)(F)F (centres unmarked) [Compound 50, 1-cyclopropyl-N-(3-(2,2,2-trifluoro-1-(pyridin-4-yl)ethoxy)quinoxalin-2-yl)methanesulfonamide] | ≥ 80
22 | CCCS(=O)(=O)Nc1nc2ccccc2nc1OC(c1ccnc(C#N)c1)C(F)(F)F (centres unmarked) [Compound 44, N-(3-(1-(2-cyanopyridin-4-yl)-2,2,2-trifluoroethoxy)quinoxalin-2-yl)propane-1-sulfonamide] | ≥ 80
23 | CCCS(=O)(=O)Nc1nc2ccccc2nc1OC(c1cccnc1)C(C)(C)C (centres unmarked) [Compound 3, N-(3-(2,2-dimethyl-1-(pyridin-3-yl)propoxy)quinoxalin-2-yl) propane-1-sulfonamide] | ≥ 80
24 | CCCCS(=O)(=O)Nc1nc2ccccc2nc1OC(c1ccncc1)C(F)(F)F (centres unmarked) [Compound 46, N-(3-(2,2,2-trifluoro-1-(pyridin-4-yl)ethoxy)quinoxalin-2-yl)butane-1-sulfonamide] | ≥ 80
25 | COCCS(=O)(=O)Nc1nc2ccccc2nc1OC(c1ccc(-n2ccnc2C)nc1)C(F)(F)F (centres unmarked) [Compound 69, 2-methoxy-N-(3-(2,2,2-trifluoro-1-(6-(2-methyl-1H-imidazol-1-yl)pyridin-3-yl)ethoxy)quinoxalin-2-yl)ethanesulfonamide] | ≥ 80
26 | CCCS(=O)(=O)Nc1nc2ccccc2nc1OC(c1ccc[n+]([O-])c1)C(C)(C)C (centres unmarked) [Compound 4, 3-(2,2-dimethyl-1-(3-(propylsulfonamido)quinoxalin-2-yloxy)propyl)pyridine 1-oxide] | ≥ 80
27 | CCCS(=O)(=O)Nc1nc2ccccc2nc1OC(CC)c1ccc[n+]([O-])c1 (centres unmarked) [Compound 16, 3-(1-(3-(propylsulfonamido)quinoxalin-2-yloxy)propyl)pyridine 1-oxide] | ≥ 80
28 | CC(C)CS(=O)(=O)Nc1nc2ccccc2nc1OC(c1ccc2nccn2c1)C(F)(F)F (centres unmarked) [Compound 29, 2-methyl-N-(3-(2,2,2-trifluoro-1-(imidazo[1,2-a]pyridin-6-yl)ethoxy)quinoxalin-2-yl)propane-1-sulfonamide] | ≥ 80
29 | CCCS(=O)(=O)Nc1nc2ccccc2nc1OC(c1cccnc1)C(F)F (centres unmarked) [Compound 17, N-(3-(2,2-difluoro-1-(pyridin-3-yl)ethoxy)quinoxalin-2-yl) propane-1-sulfonamide] | ≥ 80
